# Assay results as given in US20250129344A1, “MODIFIED GLUTAMATE DEHYDROGENASE AND APPLICATION THEREOF” (Hunan Lier Biotech Co., Ltd., priority 2021, published 2025).
# Changes are numbered by the printed parent chain.
# Key:
# Format in all cases: biochemical
# Conditions in all cases: PPO 5-100 mM, NADPH 0.15 mM, NH4Cl 50 mM, PBS pH 7.5, 30° C., diluted crude enzyme, 340 nm
# [1] = system: Bacillus velezensis glutamate dehydrogenase (BvGluDH, SEQ ID NO: 1) variant A175G-V173S, SEQ ID NO: 7; test: Dynamic properties (Michaelis-Menten) of BvGluDH mutant, PPO reductive amination
# Method: (§1) A plurality of reaction systems (200 μL) comprising PBS of 100 mM pH 7.5 (pH was adjusted with aqueous ammonia solution), NADPH (reductive) of 0.15 mM, NH4Cl of 50 mM, diluted (500 folds) crude enzyme solution of 10% volume and the substrate PPO at various concentrations (5-100 mM) were formulated on a 96-well plate. The intensity of the UV absorption at 340 nm was detected at 30° C., and the rate of change in absorption over time (mA/min) was recorded. The obtained parameters were plugged into Michaelis-Menten equation, in which the reaction velocity was calculated with the rate of change in absorption.
# (§2) The mutants were prepared with the coding nucleic acid of BvGluDH (SEQ ID NO: 1) as the template, and the enzyme activities and the dynamic parameters Vmax and Km were measured, according to the method of Example 1. The resulted mutants and the enzyme activities and the dynamic parameters thereof are shown in Table 1, and the relative enzyme activity means the percentage of the enzyme activity of the mutant to the enzyme activity of the mutant of SEQ ID NO: 3.
# [2] = system: Bacillus velezensis glutamate dehydrogenase (BvGluDH, SEQ ID NO: 1) variant A175G-V173G, SEQ ID NO: 8; test: as above
# Method: as §1, §2
# [3] = system: Bacillus velezensis glutamate dehydrogenase (BvGluDH, SEQ ID NO: 1) variant A175G, SEQ ID NO: 3; test: as above
# Method: as §1, §2
# [4] = system: Bacillus velezensis glutamate dehydrogenase (BvGluDH, SEQ ID NO: 1) variant A175G-L104C, SEQ ID NO: 4; test: as above
# Method: as §1, §2
# [5] = system: Bacillus velezensis glutamate dehydrogenase (BvGluDH, SEQ ID NO: 1) variant A175G-V173G-A182R, SEQ ID NO: 21; test: as above
# Method: as §1, §2
# [6] = system: Bacillus velezensis glutamate dehydrogenase (BvGluDH, SEQ ID NO: 1) variant A175G-I133V, SEQ ID NO: 6; test: as above
# Method: as §1, §2
# [7] = system: Bacillus velezensis glutamate dehydrogenase (BvGluDH, SEQ ID NO: 1) variant A175G-A182R, SEQ ID NO: 11; test: as above
# Method: as §1, §2
# [8] = system: Bacillus velezensis glutamate dehydrogenase (BvGluDH, SEQ ID NO: 1) variant A175G-P132L, SEQ ID NO: 5; test: as above
# Method: as §1, §2
# [9] = system: Bacillus velezensis glutamate dehydrogenase (BvGluDH, SEQ ID NO: 1) variant A175G-G181K, SEQ ID NO: 9; test: as above
# Method: as §1, §2
# [10] = system: Bacillus velezensis glutamate dehydrogenase (BvGluDH, SEQ ID NO: 1) variant A175G-G181R, SEQ ID NO: 10; test: as above
# Method: as §1, §2
# [11] = molecular target: T1, Lysinibacillus sphaericus glutamate dehydrogenase (LsGluDH, SEQ ID NO: 2) variant A175G-I133V-V173S-A182R, SEQ ID NO: 38 (Lysinibacillus pinottii, UniProt A0ABT2DNY0, A175G/A182R/I133V/V173S); test: Dynamic properties (Michaelis-Menten) of LsGluDH mutant, PPO reductive amination
# T1 sequence (A0ABT2DNY0 1-457 A175G/A182R/I133V/V173S): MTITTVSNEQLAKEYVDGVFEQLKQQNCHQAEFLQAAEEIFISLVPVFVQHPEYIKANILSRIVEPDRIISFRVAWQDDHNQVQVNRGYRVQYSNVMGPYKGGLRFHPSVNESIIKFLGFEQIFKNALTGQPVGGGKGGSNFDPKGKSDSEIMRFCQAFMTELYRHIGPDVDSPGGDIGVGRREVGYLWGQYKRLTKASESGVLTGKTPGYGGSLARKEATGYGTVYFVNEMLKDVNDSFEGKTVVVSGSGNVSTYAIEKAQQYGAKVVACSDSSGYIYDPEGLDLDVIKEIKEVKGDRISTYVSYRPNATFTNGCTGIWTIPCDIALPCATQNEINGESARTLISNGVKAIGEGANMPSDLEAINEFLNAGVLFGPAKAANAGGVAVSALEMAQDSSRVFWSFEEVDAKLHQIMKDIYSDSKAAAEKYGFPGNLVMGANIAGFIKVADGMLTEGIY
# Method: as §1
# as §2, with “LsGluDH” for “BvGluDH”, “2)” for “1)”, “2,” for “1,”, “31.” for “3.”
# [12] = molecular target: T2, Lysinibacillus sphaericus glutamate dehydrogenase (LsGluDH, SEQ ID NO: 2) variant A175G-V173S, SEQ ID NO: 34 (Lysinibacillus pinottii, UniProt A0ABT2DNY0, A175G/V173S); test: as above
# T2 sequence (A0ABT2DNY0 1-457 V173S/A175G): T1 sequence (A0ABT2DNY0 1-457 A175G/A182R/I133V/V173S) with V133I, R182A
# Method: as §1
# as §2, with “LsGluDH” for “BvGluDH”, “2)” for “1)”, “2,” for “1,”, “31.” for “3.”
smiles,measurement,setting,value
"CP(=O)(O)CCC(=O)C(=O)O [PPO, 2-carbonyl-4-(hydroxymethylphosphono) butyric acid]",Km,[1],52 mM
same,Vmax,[1],79 mA/min
same,Km,[2],53 mM
same,Vmax,[2],80 mA/min
same,Km,[3],73 mM
same,Vmax,[3],60 mA/min
same,Km,[4],34 mM
same,Vmax,[4],60 mA/min
same,Km,[5],23 mM
same,Vmax,[5],71 mA/min
same,Km,[6],43 mM
same,Vmax,[6],59 mA/min
same,Km,[7],46 mM
same,Vmax,[7],61 mA/min
same,Km,[8],32 mM
same,Vmax,[8],56 mA/min
same,Km,[9],80 mM
same,Vmax,[9],70 mA/min
same,Km,[10],84 mM
same,Vmax,[10],77 mA/min
same,Km,[11],26 mM
same,Vmax,[11],38 mA/min
same,Km,[12],62 mM
same,Vmax,[12],106 mA/min
